Data reported in patent US20110020436A1 (priority 2006, published 2011).

Tests used:
paw swelling and edema = settings: systemic melatonin after injection of a noxious stimulant; cited from earlier work
[1] = Sleepiness side effect in the case subjects; assay type: in vivo, human; settings: topical application
Text: This is probably due to either the local metabolism of melatonin or to the metabolism of melatonin in the liver, which is its primary site of metabolism (Slominski).

COX-1 = settings: macrophage cells; cited from earlier work
iNOS = settings: macrophage cells after exposure to LPS; cited from earlier work
COX-2 = settings: macrophage cells after exposure to LPS; cited from earlier work
stressed skin flaps = settings: animals with pineal glands removed, versus no melatonin; cited from earlier work

**Q.** Which results are given for `COc1ccc2[nH]cc(CCNC(C)=O)c2c1` [melatonin, N-acetyl-5-methoxytryptamine]?
**A.** swelling and edema of the paw (paw swelling and edema): reduction of swelling and edema; sleepiness [1]: no sleepiness; COX-1 function (COX-1): does not inhibit; activation of iNOS (iNOS): inhibits the activation; activation of COX-2 (COX-2): inhibits the activation; levels of MDA and nitric oxide (stressed skin flaps): decreased levels; levels of glutathione (stressed skin flaps): increased levels
